Experimental data reported in PMC5743070 (The Journal of Biological Chemistry, 2017).

Columns and labels:
PHD = experiment: NMR titration of PHD with BPC; assay type: binding
Description: NMR samples were buffered in 20 mM sodium phosphate (pH 7.5), 150 mM NaCl, 5 mM DTT, 5 mM β-mercaptoethanol, 2 mM TCEP, and 10 μM ZnSO4. The protein concentration was between 200 and 300 μM for all samples. The data were collected at 25 °C on Bruker spectrometers equipped with cryoprobes and operating at 500, 600, or 800 MHz. The assignment of backbone TTD–PHD resonances was accomplished using the ABACUS method ([29]) for which standard backbone and ^15N-edited NOESY spectra were collected using ^15N/^13C/^2H- or ^15N/^13C-labeled protein. All 3D experiments were acquired using non-uniform sampling and processed using the software MDDGUI ([30]) or qMDD ([31]). ^15N-Labeled TTD–PHD was used to acquire ^15N T1 and T2 relaxation and ^1H-^15N heteronuclear NOE measurements ([32]) collected using standard Bruker pulse schemes in an interleaved manner. For T1 measurements, the variable delay was set to 0.1, 0.4, 0.8, 1.5, 2.0, 2.5, 3.5, and 5 s. For T2 measurements, the variable delay was set to 16, 32, 48, 64, 80, 96, 128, and 144 ms. The D1 was 3 s for all experiments. Reported values were the average from two measurements. All spectra were processed using NMRPipe ([33]) and analyzed with SPARKY ([34]). […]
trated by the perturbation of I211, I212 and E281 resonances in HSQC spectra of the TTD in a competition assay. […]

TTD–PHD (UHRF1_126–366) = biological target: T1, TTD–PHD (UHRF1_126–366) (Homo sapiens, UniProt Q96T88); experiment: SAXS of TTD–PHD in the presence of BPC
T1 construct: His tag (TEV-cleavable) (N); made in house
T1 sequence (Q96T88 126-366): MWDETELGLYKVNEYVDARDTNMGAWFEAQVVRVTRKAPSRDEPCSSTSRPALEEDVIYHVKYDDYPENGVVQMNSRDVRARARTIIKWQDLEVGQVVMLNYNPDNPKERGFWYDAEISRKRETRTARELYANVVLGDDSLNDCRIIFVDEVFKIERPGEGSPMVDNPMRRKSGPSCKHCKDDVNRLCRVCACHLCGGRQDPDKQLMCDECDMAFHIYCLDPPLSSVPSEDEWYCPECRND
Description: All SAXS samples were buffered in 20 mM Tris (pH 7.5), 150 mM NaCl, 5 mM DTT, 5 mM β-mercaptoethanol, 2 mM TCEP and 10 μM ZnCl2, and data were collected at concentrations ranging from ∼1 to 5 mg/ml. Measurements were carried out at Beamline 12-ID-B of the Advanced Photon Source, Argonne National Laboratory. The energy of the X-ray beam was 14 Kev (wavelength λ = 0.8856 Å), and two setups (small- and wide-angle X-ray scattering) were used simultaneously in which the sample to 2M detector distance was adjusted to achieve scattering q values of 0.006 < q < 2.6 Å^−1, where q = (4π/λ)sinθ, and 2θ is the scattering angle. To reduce radiation damage and obtain good statistics, thirty 2D images were recorded for each buffer or sample solution using a flow cell, with an accumulated exposure time of 0.4–2.0 s. No radiation damage was observed as confirmed by the absence of systematic signal changes in sequentially collected X-ray scattering images. The scattering profile of the protein was calculated by subtracting the background buffer contribution from the […] using the program PRIMUS (ATSAS package, EMBL) ([35]). Concentration series measurements for a sample were carried out to remove the scattering contribution caused by interparticle interactions and to extrapolate the data to infinite dilution. Guinier analysis and the experimental radius of gyration (Rg) estimation from the data of infinite dilution were performed using PRIMUS. The pair distance distribution function, P(r), and the maximum dimension of the protein, Dmax, in real space were calculated with the indirect Fourier transform using the program GNOM ([36]). To avoid underestimation of the molecular dimension and consequent distortion in low resolution structural reconstruction, the parameter Dmax, the upper end of distance r, was chosen such that the resulting PDDF has a short, near zero-value tail at large r. The Rg from P(r) analysis was also reported. The molecular weights were estimated using Vc ([37]) in the q range of 0 < q < 0.3 Å^−1. Fifteen ab initio shape reconstructions (molecular envelopes) were generated using DAMMIF ([38]) and averaged with DAMAVER ([39]). The structural models were superimposed and overlaid with the averaged envelope using SUPCOMP ([40]). The theoretical scattering intensity of a structural model was calculated and fitted to the experimental scattering intensity using CRYSOL ([41]).
Table S1 (related to Fig. 1, S1, S4): SAXS parameters for the TTD-PHD module SAXS HTG-TTD-PHDa TTD-PHD/BPCb […]
b UHRF1126-366 in complex with BPC (2 mM, 4% DMSO) […]
d Rg calculated using Guinier fit e Rg calculated using GNOM (5) f Maximum distance between atoms from GNOM g Volume of correlation (6) h Mw estimated from SAXS data using Vc (6). The Mw expected from sequence is shown in parentheses i Normalized spatial discrepancy. The values are the average and standard deviation from fifteen runs

[1] = 2 mM BPC, 4% DMSO, GNOM, Table S1

Dmax of TTD-PHD with BPC (TTD–PHD (UHRF1_126–366); [1]): 94 Å
Rg real (GNOM) of TTD-PHD with BPC (TTD–PHD (UHRF1_126–366); [1]): 27.1 Å
Rg (Guinier fit) of TTD-PHD with BPC (TTD–PHD (UHRF1_126–366); 2 mM BPC, 4% DMSO, Guinier fit, Table S1): 26.6 Å
Vc (volume of correlation) of TTD-PHD with BPC (TTD–PHD (UHRF1_126–366); 2 mM BPC, 4% DMSO, Table S1): 280.5
Rg (Guinier fit) of TTD–PHD with BPC (TTD–PHD (UHRF1_126–366); 4 mM BPC, 4% DMSO, 20 mM Tris pH 7.5, 150 mM NaCl, Guinier fit, apo 24.5): 27.1 Å
Vc (volume of correlation) of TTD–PHD with BPC (TTD–PHD (UHRF1_126–366); 4 mM BPC, 4% DMSO, apo 274.3): 284.4
Rg real (GNOM) of TTD–PHD with BPC (TTD–PHD (UHRF1_126–366); 4 mM BPC, 4% DMSO, from GNOM, apo 24.9): 27.2 Å
Dmax of TTD–PHD with BPC (TTD–PHD (UHRF1_126–366); 4 mM BPC, 4% DMSO, from GNOM, apo 83): 94 Å
shallow secondary shoulder of pair-distance distribution function (TTD–PHD (UHRF1_126–366); TTD–PHD with BPC (4 mM, 4% DMSO)): ~50 Å
Structure (SMILES): N=C(N)N1CCC(Cc2ccccc2)CC1 [BPC, 4-benzylpiperidine-1-carboximidamide]
effect on PHD resonances (PHD; 3 mM BPC, 5% DMSO (12:1)): unaffected
interaction with PHD (PHD; separate NMR titration with PHD): no interaction
